9 compounds from patent publication US7736624B2, “Methods and compositions for diagnostic and therapeutic targeting of COX-2” (priority 2006, dated 2010) can be followed below.

One test deals with T1, ovine COX-1 (Ovis aries, UniProt P05979).
T1 construct: can be purified from ovine seminal vesicles by standard procedures; from tissue; host or cells: ovine seminal vesicles
T1 sequence (P05979 25-600): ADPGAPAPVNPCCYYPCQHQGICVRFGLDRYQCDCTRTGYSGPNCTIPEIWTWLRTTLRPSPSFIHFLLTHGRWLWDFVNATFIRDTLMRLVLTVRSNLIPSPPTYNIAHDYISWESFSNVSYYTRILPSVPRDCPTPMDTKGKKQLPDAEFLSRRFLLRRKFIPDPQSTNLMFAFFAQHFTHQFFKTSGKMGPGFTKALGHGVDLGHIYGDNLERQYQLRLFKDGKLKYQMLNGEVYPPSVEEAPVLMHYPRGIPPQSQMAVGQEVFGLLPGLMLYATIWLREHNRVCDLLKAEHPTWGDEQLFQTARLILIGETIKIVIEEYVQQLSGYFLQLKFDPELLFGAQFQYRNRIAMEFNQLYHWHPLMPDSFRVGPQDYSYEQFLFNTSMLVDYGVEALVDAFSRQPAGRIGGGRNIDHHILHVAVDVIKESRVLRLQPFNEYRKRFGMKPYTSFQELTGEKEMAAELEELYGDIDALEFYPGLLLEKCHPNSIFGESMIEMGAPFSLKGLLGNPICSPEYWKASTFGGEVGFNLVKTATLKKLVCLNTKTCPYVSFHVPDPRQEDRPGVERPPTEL
In words: IC50 determinations using purified enzymes (TLC assay), COX-1. Type of test: biochemical. To be noted: assayed against purified enzymes.

For another test, the target named is T2, COX-2 (Homo sapiens, UniProt P35354).
T2 sequence (P35354 18-604): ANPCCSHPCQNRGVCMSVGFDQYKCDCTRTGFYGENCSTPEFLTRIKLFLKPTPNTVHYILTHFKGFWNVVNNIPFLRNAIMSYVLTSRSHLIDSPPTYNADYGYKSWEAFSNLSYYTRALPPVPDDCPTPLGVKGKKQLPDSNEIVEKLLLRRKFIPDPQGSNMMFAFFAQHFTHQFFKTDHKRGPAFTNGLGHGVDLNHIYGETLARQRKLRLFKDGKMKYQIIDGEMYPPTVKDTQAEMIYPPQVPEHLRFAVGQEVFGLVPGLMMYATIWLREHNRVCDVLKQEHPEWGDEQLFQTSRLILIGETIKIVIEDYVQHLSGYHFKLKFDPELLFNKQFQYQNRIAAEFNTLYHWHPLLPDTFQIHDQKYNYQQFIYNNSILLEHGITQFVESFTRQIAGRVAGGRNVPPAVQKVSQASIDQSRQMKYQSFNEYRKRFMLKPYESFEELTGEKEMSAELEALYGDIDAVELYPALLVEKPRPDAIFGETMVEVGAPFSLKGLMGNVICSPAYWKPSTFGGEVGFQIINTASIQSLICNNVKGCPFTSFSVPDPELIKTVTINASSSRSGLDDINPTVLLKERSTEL
The test is described as follows: IC50 determinations using purified enzymes (TLC assay), COX-2. In kind it is biochemical. Also on record: made in house; host or cells: Sf9 insect cells. To be noted: assayed against purified enzymes, read-out: IC50 COX-2.

Another test relates to RAW264.7 cells. In words: In vitro cell imaging, LPS/IFNγ-activated RAW264.7 cells. Type of test: cell-based, mouse. Particulars: for fluorescence imaging of cells: 200 nM, 30 minutes, LPS-activated RAW264.7; for fluorescent signal after indomethacin pretreatment: indomethacin (20 μM) pretreatment, RAW264.7. The protocol:
RAW264.7 cells (a line established from a tumor induced in a mouse by Abelson murine leukemia virus and available from the American Type Culture Collection, Manassas, Va., United States of America) were grown overnight on 35 mm culture dishes (MatTek Corp., Ashland, Mass., United States of America) with glass coverslips in Dulbecco's Modified Eagle Medium (DMEM) plus 10% heat-inactivated fetal bovine serum (FBS). Platings of cells were done in order to reach 30% confluency the next day. After overnight growth, the growth medium was replaced with 2 ml serum-free DMEM per dish. Individual dishes then received 200 ng/ml LPS plus 10 units/ml murine IFNγ (Roche Applied Science, Indianapolis, Ind., United States of America) for 6 hours to induce COX-2. […] After 30 minutes, the cells were washed briefly three times in medium and incubated in Hank's balanced salt solution (HBSS)/Tyrode's for 60 minutes at 37° C. After 60 minutes, the HBSS/Tyrode's was removed and fresh HBSS/Tyrode's was added. The cells were immediately imaged using a Zeiss Axiovert 25 Microscope (propidium iodide filter/2-3 sec exposure/gain of 2).

The test system of test [1] is COX-2-transformed HEK293 cells. The test is described as follows: In vitro cell imaging, HEK293 cells expressing human COX-2. Type of test: cell-based. To be noted: HEK293/COX-2; for fluorescent staining of cells: 200 nM; for fluorescent staining after indomethacin pretreatment: indomethacin (20 μM) pretreatment. As for the experimental part:
A second experimental design employed HEK293 cells (a cell line generated by transformation of human embryonic kidney cell cultures with adenovirus) that had been transformed with an expression construct encoding a constitutively active human COX-2. For imaging experiments, cells were also plated on 35 mm culture dishes (MatTek Corp., Ashland, Mass., United States of America) with glass coverslips and grown to 70% confluency in DMEM plus 20% FBS. When the appropriate confluency was reached (approximately 48 hours after plating), the medium was replaced with DMEM/1% FBS and exposed to 200 nM Compound 27vv or Compound 27ww as described hereinabove. After 30 minutes, the cells were washed briefly 3 times and incubated in DMEM/10% FBS for 60 minutes at 37° C. After 60 minutes, the medium was removed and the cells were washed with HBSS/Tyrode's. After the second wash, fresh HBSS/Tyrode's was added and the cells were immediately imaged using a Zeiss Axiovert 25 Microscope (propidium iodide filter/3 sec exposure/gain of 3).

“Also recorded” adds a separate entry of the source. Read-outs that look alike come from different tables or passages of the source.

In the case of `COc1ccc2c(c1)c(CC(=O)NCCCCNC(=O)Cc1ccc(Nc3ccc([N+](=O)[O-])c4nonc34)cc1)c(C)n2C(=O)c1ccc(Cl)cc1` [Compound 27ii, N-([2-{4-(7-nitrobenzo[1,2,5]oxadiazol-4-ylamino)phenyl}acetamido]but-4-yl)-2-{1-(4-chlorobenzoyl)-5-methoxy-2-methyl-1H-indol-3-yl]acetamide], the concentration for half-maximal inhibition (IC50) is more than 25 µM against ovine COX-1 (Table 3) and 0.5 µM on COX-2 (Table 3).

In the case of `COC(=O)c1cc(-c2ccc(C)cc2)n(-c2ccc(S(N)(=O)=O)cc2)n1` [Compound 30b], the IC50 against ovine COX-1 (Table 2) is more than 25 µM; at COX-2 (Table 2) it was 0.92 µM.

On to `COc1ccc2c(c1)c(CC(=O)NCCCCNC(=O)c1ccc(C(=O)O)c(-c3c4ccc(=O)cc-4oc4cc(O)ccc34)c1)c(C)n2C(=O)c1ccc(Cl)cc1` [Compound 27qq, N-[(Fluorescein-6-carboxylamido)but-4-yl]-2-[1-(4-chlorobenzoyl)-5-methoxy-2-methyl-1H-indol-3-yl)acetamide], for which the IC50 against ovine COX-1 (Table 3) and on COX-2 (Table 3) was more than 25 µM in each case.

In the case of `COc1ccc2c(c1)c(CC(=O)NCCNS(=O)(=O)c1ccc(/N=N/c3ccc(N(C)C)cc3)cc1)c(C)n2C(=O)c1ccc(Cl)cc1` [Compound 27aa, N-(2-Dabsylaminoethyl)-2-{1-(4-chlorobenzoyl)-5-methoxy-2-methyl-1H-indol-3-yl}acetamide], the IC50 was more than 25 µM at ovine COX-1 (Table 3) and 0.08 µM on COX-2 (Table 3).

As to `COc1ccc2c(c1)c(CC(=O)NCCCCNC(=O)c1ccc(C(=O)[O-])c(C3=c4cc5c6c(c4Oc4c3cc3c7c4CCCN7CCC3)CCC[N+]=6CCC5)c1)c(C)n2C(=O)c1ccc(Cl)cc1` [Compound 27vv], the IC50 against ovine COX-1 (Table 3) was more than 25 µM. Besides, in the test on RAW264.7 cells, the “fluorescence imaging of cells” value is recorded as “LPS activation enhanced imaging; also recorded: consistent fluorescent signals over control cells” and the “fluorescent signal after indomethacin pretreatment” value is given as “reduced the fluorescent signal”. In test [1], the “fluorescent staining of cells” value is reported as “clearly observable fluorescent staining; also recorded: fluorescence above the level observed in control HEK293 cells” and the “fluorescent staining after indomethacin pretreatment” value is given as “reduced”. For the same compound, the IC50 at COX-2 (Table 3) was determined as 3.5 µM.

On to `CC[N+](CC)=c1ccc2c(-c3ccccc3)c(C)c(/C=C/C=C3/N(CCCCCC(=O)NCCCCNC(=O)Cc4c(C)n(C(=O)c5ccc(Cl)cc5)c5ccc(OC)cc45)c4ccc(S(=O)(=O)[O-])cc4C3(C)C)oc-2c1` [Compound 27ttt], for which the IC50 is more than 25 µM against ovine COX-1 (Table 3) and 1 µM at COX-2 (Table 3).

Regarding `COc1ccc2c(c1)c(CC(=O)NCCNS(=O)(=O)c1cccc3c(N(C)C)cccc13)c(C)n2C(=O)c1ccc(Cl)cc1` [Compound 27x], the IC50 is more than 25 µM on ovine COX-1 (Table 3) and 0.066 µM at COX-2 (Table 3).

Take `CC[N+](CC)=c1ccc2nc3c(cc(NC(=O)CCOCCOCCOCCOCCNC(=O)Cc4c(C)n(C(=O)c5ccc(Cl)cc5)c5ccc(OC)cc45)c4ccccc43)oc-2c1` [Compound 27uu, N-[5-)1-{1-(4-chlorobenzoyl)-5-methoxy-2-methyl-1H-indol-3-yl}-2-6,9,12,15-tetraoxa-3-azaoctadecanamido]-9H-benzo[a]penoxazin-9-ylidene)-N-ethylethanaminium perchlorate]: the IC50 was more than 25 µM on ovine COX-1 (Table 3) and 1.7 µM on COX-2 (Table 3).

For `COc1ccc2c(c1)c(CC(=O)NCCCCNC(=O)c1ccc(C3=c4cc5c6c(c4Oc4c3cc3c7c4CCCN7CCC3)CCC[N+]=6CCC5)c(C(=O)[O-])c1)c(C)n2C(=O)c1ccc(Cl)cc1` [Compound 27eee], at ovine COX-1 (Table 3), the concentration for half-maximal inhibition (IC50) is more than 25 µM. Moreover, in the test on RAW264.7 cells, the “fluorescence imaging of cells” value was “good specific staining; also recorded: consistent fluorescent signals over control cells” and the “fluorescent signal after indomethacin pretreatment” value is listed as “reducible by pretreatment with indomethacin”. In addition, in test [1], the “fluorescent staining of cells” value is reported as “good specific staining; also recorded: fluorescence above the level observed in control HEK293 cells” and the “fluorescent staining after indomethacin pretreatment” value is given as “reducible by pretreatment with indomethacin”. On COX-2 (Table 3), the IC50 came out at 0.7 µM.

The IC50 is the midpoint of a concentration-inhibition curve.
